The record followed here is patent publication US9067934B2, “Bicyclic pyridinones” (Pfizer Inc., priority 2011, dated 2015).

The structures appear in SMILES notation.

This test concerns production of amyloid beta protein Aβ(1-42) (γ-secretase) in human WT-APP overexpressing CHO cells. The test can be described thus: Cell-Based γ-Secretase Assay with ELISA Readout. The following applies: human WT-APP overexpressing CHO cells, ~24 hours at 37° C., Aβ(1-42) ELISA; footnotes: a = geometric mean of >15 determinations, b = single determination, c = geometric mean of 7-15 determinations; read-out: Aβ 42B IC50 (Geometric Mean of 2-6 Determinations). The gist of the method: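 Human WT-APP-overexpressing CHO cells were pre-cultured 24 h at 37° C, then exposed to compounds (eleven-point half-log series, 1% final DMSO) for ~24 h. Aβ(1-42) in conditioned media was captured with Aβ(1-42)-specific antibody and detected with Eu-labeled 6e10 by DELFIA TRF. IC50 by nonlinear regression against min/max inhibition controls.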
A general note: ELISA stands for enzyme-linked immunosorbent assay.
For `Cc1cn(-c2ccc3n(c2=O)CCN(CCOc2cc(C(F)(F)F)nc4c(C)ccc(Cl)c24)C3=O)cn1` [Example 51, 2-(2-{[5-chloro-8-methyl-2-(trifluoromethyl)quinolin-4-yl]oxy}ethyl)-7-(4-methyl-1H-imidazol-1-yl)-3,4-dihydro-2H-pyrido[1,2-a]pyrazine-1,6-dione], the half-inhibitory concentration (IC50) – broadly, the midpoint of a concentration-inhibition curve – is 20 nM.
In the case of `Cc1cn(-c2ccc3n(c2=O)[C@@H](C)CN(CCOc2ccc(F)cc2C(F)(F)F)C3=O)cn1` [Example 112, (4S)-2-{2-[4-fluoro-2-(trifluoromethyl)phenoxy]ethyl}-4-methyl-7-(4-methyl-1H-imidazol-1-yl)-3,4-dihydro-2H-pyrido[1,2-a]pyrazine-1,6-dione] it was 340 nM.
In the case of `Cc1cn(-c2ccc3n(c2=O)CCN(CCOc2cccc4ccc(F)cc24)C3=O)cn1` [Example 83, 2-{2-[(7-fluoronaphthalen-1-yl)oxy]ethyl}-7-(4-methyl-1H-imidazol-1-yl)-3,4-dihydro-2H-pyrido[1,2-a]pyrazine-1,6-dione] it was 12.3 nM; in that of `Cc1cn(-c2ccc3n(c2=O)CCN(CCOc2cccc4c2OC(F)(F)O4)C3=O)cn1` [Example 109, 2-{2-[(2,2-difluoro-1,3-benzodioxol-4-yl)oxy]ethyl}-7-(4-methyl-1H-imidazol-1-yl)-3,4-dihydro-2H-pyrido[1,2-a]pyrazine-1,6-dione], 275 nM; in that of `Cc1cn(-c2ccc3n(c2=O)CCN(CCOc2ccc(F)c4sc(C(F)(F)F)nc24)C3=O)cn1` [Example 80, 2-(2-{[7-fluoro-2-(trifluoromethyl)-1,3-benzothiazol-4-yl]oxy}ethyl)-7-(4-methyl-1H-imidazol-1-yl)-3,4-dihydro-2H-pyrido[1,2-a]pyrazine-1,6-dione], 152 nM.
